Test results reported in patent US8124793B2, “Derivatives of ethylene methanedisulfonate as cancer chemotherapeutic agents” (priority 2007, dated 2012).

How the values were obtained:
Assay type in all cases: cell-based
[1] = test system: CCRF-CEM; assay: NCI screen, growth of human tumor cells: Leukemia CCRF-CEM; settings: for % Growth: CCRF-CEM
In short: (§1)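 Growth of human tumor cells, expressed as percent, was determined in the NCI screen. Test data list the cancer type and the molar concentration applied.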

[2] = test system: K562; assay: NCI screen, growth of human tumor cells: Leukemia K562
In short: as §1

[3] = test system: MOLT-4; assay: NCI screen, growth of human tumor cells: Leukemia MOLT-4
In short: as §1

[4] = test system: RPMI-8226; assay: NCI screen, growth of human tumor cells: Leukemia RPMI-8226
In short: as §1

[5] = test system: SR; assay: NCI screen, growth of human tumor cells: Leukemia SR; settings: for % Growth: SR
In short: as §1

[6] = test system: HOP-62; assay: NCI screen, growth of human tumor cells: Non-Small Cell Lung HOP-62; settings: HOP-62, 10^−4 molar
In short: as §1

[7] = test system: NCI-H23; assay: NCI screen, growth of human tumor cells: Non-Small Cell Lung NCI-H23
In short: as §1

[8] = test system: COLO205; assay: NCI screen, growth of human tumor cells: Colon Cancer COLO205
In short: as §1

[9] = test system: KM12; assay: NCI screen, growth of human tumor cells: Colon Cancer KM12; settings: KM12, 10^−4 molar
In short: as §1

[10] = test system: SF-295; assay: NCI screen, growth of human tumor cells: CNS Cancer SF-295
In short: as §1

[11] = test system: SNB-19; assay: NCI screen, growth of human tumor cells: CNS Cancer SNB-19
In short: as §1

[12] = test system: MALME-3M; assay: NCI screen, growth of human tumor cells: Melanoma MALME-3M; settings: 10^−4 molar
In short: as §1

[13] = test system: SK-MEL-2; assay: NCI screen, growth of human tumor cells: Melanoma SK-MEL-2
In short: as §1

[14] = test system: SK-MEL-28; assay: NCI screen, growth of human tumor cells: Melanoma SK-MEL-28
In short: as §1

[15] = test system: SK-MEL-5; assay: NCI screen, growth of human tumor cells: Melanoma SK-MEL-5
In short: as §1

[16] = test system: OVCAR-3; assay: NCI screen, growth of human tumor cells: Ovarian Cancer OVCAR-3; settings: OVCAR-3, 10^−4 molar
In short: as §1

[17] = test system: OVCAR-4; assay: NCI screen, growth of human tumor cells: Ovarian Cancer OVCAR-4; settings: OVCAR-4, 10^−4 molar
In short: as §1

[18] = test system: OVCAR-5; assay: NCI screen, growth of human tumor cells: Ovarian Cancer OVCAR-5; settings: OVCAR-5, 10^−4 molar
In short: as §1

[19] = test system: OVCAR-8; assay: NCI screen, growth of human tumor cells: Ovarian Cancer OVCAR-8; settings: OVCAR-8 (Ovarian Cancer), 10^−4 molar
In short: as §1

[20] = test system: 786-0; assay: NCI screen, growth of human tumor cells: Renal Cancer 786-0; settings: 786-0, 10^−4 molar
In short: as §1

[21] = test system: TK-10; assay: NCI screen, growth of human tumor cells: Renal Cancer TK-10; settings: TK-10, 10^−4 molar
In short: as §1

[22] = test system: SN12C; assay: NCI screen, growth of human tumor cells: Renal Cancer SN12C; settings: SN12C, 10^−4 molar
In short: as §1

[23] = test system: CAKI-1; assay: NCI screen, growth of human tumor cells: Renal Cancer CAKI-1
In short: as §1

[24] = test system: DU-145; assay: NCI screen, growth of human tumor cells: Prostate Cancer DU-145; settings: DV-145, 10^−4 molar
In short: as §1

[25] = test system: MCF7/ADR-RES; assay: NCI screen, growth of human tumor cells: Breast Cancer MCF7/ADR-RES; settings: MCF7/ADR-RES (Breast Cancer), 10^−4 molar
In short: as §1

[26] = test system: BT-549; assay: NCI screen, growth of human tumor cells: Breast Cancer BT-549
In short: as §1

[27] = test system: MDA-MB-435; assay: NCI screen, growth of human tumor cells: Breast Cancer MDA-MB-435
In short: as §1

[28] = test system: human cancer cells; assay: NCI screen summary over the cancers tested (negative growth of human cancer cells); settings: for Percentage of cancers showing negative growth cancers tested: cancers with negative growth / cancers tested
Method: In the NCI screening process, each compound was tested and described by a minimum of 60 data points. The test data include, but are not limited to the type of cancer, the molar concentration used in the screen, and the percent growth of the cancer. In some cases, NMR and elemental analysis were used for structural assignment.
The derivatives in the tables are grouped using the same category as in the tables 1-6.

[29] = test system: HOP-92; assay: NCI screen, growth of human tumor cells: Non-Small Cell Lung HOP-92; settings: HOP-92 (Non-Small Cell Lung), 10^−4 molar
In short: as §1

[30] = test system: NCI-H522; assay: NCI screen, growth of human tumor cells: Non-Small Cell Lung NCI-H522; settings: NCI-H522, 10^−4 molar
In short: as §1

[31] = test system: NCI-H322M; assay: NCI screen, growth of human tumor cells: Non-Small Cell Lung NCI-H322M; settings: NCI-H322M, 10^−4 molar
In short: as §1

[32] = test system: SF-268; assay: NCI screen, growth of human tumor cells: CNS Cancer SF-268; settings: SF-268 (CNS Cancer), 10^−4 molar
In short: as §1

[33] = test system: SF-539; assay: NCI screen, growth of human tumor cells: CNS Cancer SF-539; settings: SF-539 (CNS Cancer), 10^−4 molar
In short: as §1

[34] = test system: SNB-75; assay: NCI screen, growth of human tumor cells: CNS Cancer SNB-75; settings: SNB-75, 10^−4 molar
In short: as §1

[35] = test system: UACC-257; assay: NCI screen, growth of human tumor cells: Melanoma UACC-257; settings: UACC-257, 10^−4 molar
In short: as §1

[36] = test system: UACC-62; assay: NCI screen, growth of human tumor cells: Melanoma UACC-62; settings: UACC-62, 10^−4 molar
In short: as §1

[37] = test system: IGROVI; assay: NCI screen, growth of human tumor cells: Ovarian Cancer IGROVI; settings: IGROVI, 10^−4 molar
In short: as §1

Cc1ccc2ccccc2c1CC1S(=O)(=O)OCCOS1(=O)=O [NSC 679043, ethylene 2-methyl-1-naphyl-1,1-ethanedisulfonate]
% Growth ([1]; 10^−4 molar): −49% | % Growth ([1]; 10^−5 molar): 37% | % Growth ([2]; K562, 10^−4 molar): −42% | % Growth ([2]; K562, 10^−5 molar): 48% | % Growth ([3]; MOLT-4, 10^−4 molar): −46% | % Growth ([3]; MOLT-4, 10^−5 molar): 36% | % Growth ([4]; RPMI-8226, 10^−4 molar): −54% | % Growth ([4]; RPMI-8226, 10^−5 molar): 56% | % Growth ([5]; 10^−4 molar): −63% | % Growth ([5]; 10^−5 molar): 42% | % Growth [6]: −77% | % Growth ([7]; NCI-H23, 10^−4 molar): −48% | % Growth ([7]; NCI-H23, 10^−5 molar): 75% | % Growth ([8]; COLO205, 10^−4 molar): −98% | % Growth ([8]; COLO205, 10^−5 molar): −27% | % Growth [9]: −69% | % Growth ([10]; SF-295, 10^−4 molar): −88% | % Growth ([11]; SNB-19, 10^−4 molar): −95% | % Growth ([12]; MALME-3M): −88% | percent of growth of human tumor cells ([13]; SK-MEL-2 (Melanoma), 10^−4 molar): −59% | % Growth ([14]; SK-MEL-28, 10^−4 molar): −78% | % Growth ([15]; SK-MEL-5, 10^−4 molar): −91% | % Growth [16]: −100% | % Growth [17]: −97% | % Growth [18]: −98% | percent of growth of human tumor cells [19]: −53% | % Growth [20]: −97% | % Growth [21]: −93% | % Growth [22]: −85% | % Growth ([23]; CAKI-1, 10^−4 molar): −100% | % Growth [24]: −100% | percent of growth of human tumor cells [25]: −12% | % Growth ([26]; BT-549, 10^−4 molar): −82% | % Growth ([26]; BT-549, 10^−5 molar): 57% | % Growth ([27]; MDA-MB-435, 10^−4 molar): −90% | % Growth ([27]; MDA-MB-435, 10^−5 molar): 47% | percentage of cancers that had −100% growth ([28]; 10^−4 M conc.): 8% | Percentage of cancers showing negative growth cancers tested ([28]; 10^−4 M conc.): 100% | Percentage of cancers showing negative growth cancers tested ([28]; 10^−5 M conc.): 9%

CC1(C)OCC(COC(=O)C(=O)C2(Cc3ccc4c(c3)C(=O)c3ccccc3C4=O)S(=O)(=O)OCCOS2(=O)=O)O1 (stereo not drawn) [NSC 737276]
percent of growth of human tumor cells ([1]; CCRF-CEM (Leukemia), 10^−4 molar): −38% | percent of growth of human tumor cells ([2]; K562 (Leukemia), 10^−4 molar): 29% | percent of growth of human tumor cells ([3]; MOLT-4 (Leukemia), 10^−4 molar): −26% | percent of growth of human tumor cells ([4]; RPMI-8226 (Leukemia), 10^−4 molar): −35% | percent of growth of human tumor cells ([5]; SR (Leukemia), 10^−4 molar): 12% | % Growth [6]: −84% | percent of growth of human tumor cells [29]: −47% | % Growth [30]: −91% | % Growth [31]: −87% | % Growth ([7]; NCI-H23, 10^−4 molar): −75% | % Growth ([8]; COLO205, 10^−4 molar): −96% | % Growth [9]: −74% | percent of growth of human tumor cells [32]: −40% | percent of growth of human tumor cells ([10]; SF-295 (CNS Cancer), 10^−4 molar): −12% | percent of growth of human tumor cells ([11]; SNB-19 (CNS Cancer), 10^−4 molar): −59% | percent of growth of human tumor cells [33]: −43% | % Growth [34]: −87% | percent of growth of human tumor cells ([12]; MALME-3M (Melanoma)): −50% | % Growth ([13]; SK-MEL-2, 10^−4 molar): −62% | percent of growth of human tumor cells ([14]; SK-MEL-28 (Melanoma), 10^−4 molar): −52% | percent of growth of human tumor cells ([15]; SK-MEL-5 (Melanoma), 10^−4 molar): −4% | % Growth [35]: −76% | % Growth [36]: −91% | % Growth [37]: −70% | % Growth [16]: −71% | % Growth [17]: −73% | % Growth [18]: −89% | percent of growth of human tumor cells [19]: 5% | % Growth [20]: −74% | % Growth [21]: −73% | % Growth [22]: −64% | percent of growth of human tumor cells ([23]; CAKI-1 (Renal Cancer), 10^−4 molar): 15% | % Growth [24]: −81% | percent of growth of human tumor cells [25]: −29% | percent of growth of human tumor cells ([26]; BT-549 (Breast Cancer), 10^−4 molar): −49% | Percentage of cancers showing negative growth cancers tested ([28]; 10^−4 M conc.): 10^−4 M conc. = 49/55 = 89%
